Patent US6737383B1, “Herbicidal oxadiazolidines” (priority 1999, dated 2004)

What was measured:
blackgrass = assay: Test B pre/postemergence blackgrass; type: in vivo, Alopecurus myosuroides
Summary of the method: (§1)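 Herbicidal effect was estimated by eye on a ten-point control scale after plants spent twelve to sixteen days in a greenhouse following soil or foliar treatment. Foliar sprays targeted plants at one to four leaves; all doses were formulated in a non-phytotoxic solvent with surfactant.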

surinam grass = assay: Test B pre/postemergence surinam grass; type: in vivo, Brachiaria decumbens
Summary of the method: as §1

cocklebur = assay: Test B pre/postemergence cocklebur; type: in vivo, Xanthium strumarium
Summary of the method: as §1

corn = assay: Test B pre/postemergence corn; type: in vivo, Zea mays
Summary of the method: as §1

crabgrass = assay: Test B pre/postemergence crabgrass; type: in vivo, Digitaria sanguinalis
Summary of the method: as §1

giant foxtail = assay: Test B pre/postemergence giant foxtail; type: in vivo, Setaria faberii
Summary of the method: as §1

morningglory = assay: Test B pre/postemergence morningglory; type: in vivo, Ipomoea hederacea
Summary of the method: as §1

pigweed = assay: Test B pre/postemergence pigweed; type: in vivo, Amaranthus retroflexus
Summary of the method: as §1

rape = assay: Test B pre/postemergence rape; type: in vivo, Brassica napus
Summary of the method: as §1

soybean = assay: Test B pre/postemergence soybean; type: in vivo, Glycine max
Summary of the method: as §1

sugar beet = assay: Test B pre/postemergence sugar beet; type: in vivo, Beta vulgaris
Summary of the method: as §1

velvetleaf = assay: Test B pre/postemergence velvetleaf; type: in vivo, Abutilon theophrasti
Summary of the method: as §1

wild oat = assay: Test B pre/postemergence wild oat; type: in vivo, Avena fatua
Summary of the method: as §1

purple nutsedge = assay: Test B pre/postemergence purple nutsedge; type: in vivo, Cyperus rotundus
Summary of the method: as §1

rice = assay: Test B flood test rice; type: in vivo, Oryza sativa
Summary of the method: (§2)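 Flood test on plants grown to the 2-leaf stage; treated plants kept in greenhouse twelve to sixteen days, then visually rated against controls on a 0 (no effect) to 10 (complete control) scale.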

duck salad = assay: Test B flood test duck salad; type: in vivo, Heteranthera limosa
Summary of the method: as §2

[1] = Preemergence, Rate 62 g/ha, scale of 0 to 10 where 0 is no effect and 10 is complete control
[2] = Preemergence, Rate 250 g/ha, scale of 0 to 10 where 0 is no effect and 10 is complete control
[3] = Preemergence, Rate 500 g/ha, scale of 0 to 10 where 0 is no effect and 10 is complete control
[4] = Rate 62 g/ha, Postemergence, scale 0 to 10 (0 no effect, 10 complete control)
[5] = Rate 125 g/ha, Postemergence, scale of 0 to 10 where 0 is no effect and 10 is complete control
[6] = Rate 250 g/ha, Postemergence, scale of 0 to 10 where 0 is no effect and 10 is complete control
[7] = Rate 500 g/ha, Postemergence, scale 0 to 10, 0 no effect, 10 complete control
[8] = Rate 62 g/ha, headed Pre-emergence (flood test species), scale 0 to 10 (0 no effect, 10 complete control)
[9] = Rate 125 g/ha, Pre-emergence, flood test species, scale 0 to 10 where 0 is no effect and 10 is complete control
[10] = Rate 250 g/ha, Pre-emergence, flood-test species, scale 0 to 10, 0 is no effect, 10 is complete control
[11] = Rate 500 g/ha, Pre-emergence, flood test species, scale 0 to 10 (0 no effect, 10 complete control)

## Cc1ccccc1-n1c(=O)on(C(=O)N(c2ccc(OC(F)(F)F)cc2)C(C)C)c1=O [Compound 300]
blackgrass; [1]
  Blackgrass plant response rating: 0
blackgrass; Preemergence, Rate 125 g/ha
  Blackgrass plant response rating (0 to 10 scale): 0
blackgrass; [2]
  Blackgrass plant response rating: 0
blackgrass; [3]
  Blackgrass plant response rating: 0
blackgrass; [4]
  Blackgrass plant response rating: 0
blackgrass; [5]
  Blackgrass plant response rating: 0
blackgrass; [6]
  Plant response rating, Blackgrass: 0
blackgrass; [7]
  Blackgrass plant response rating: 0
Surinam grass; [1]
  B. signalgrass plant response rating: 0
Surinam grass; Preemergence, Rate 125 g/ha
  B. signalgrass plant response rating (0 to 10 scale, 0 is no effect, 10 is complete control): 0
Surinam grass; [2]
  B. signalgrass plant response rating: 0
Surinam grass; [3]
  B. signalgrass plant response rating: 2
Surinam grass; [4]
  B. signalgrass plant response rating: 0
Surinam grass; [5]
  B. signalgrass plant response rating: 0
Surinam grass; [6]
  Plant response rating, B. signalgrass: 0
Surinam grass; [7]
  B. signalgrass plant response rating: 0
cocklebur; [1]
  Cocklebur plant response rating: 0
cocklebur; Preemergence, Rate 125 g/ha
  Cocklebur plant response rating (0 to 10 scale): 0
cocklebur; [2]
  Cocklebur plant response rating: 0
cocklebur; [4]
  Cocklebur plant response rating: 0
cocklebur; [5]
  Cocklebur plant response rating: 0
cocklebur; [6]
  Plant response rating, Cocklebur: 0
cocklebur; [7]
  Cocklebur plant response rating: 0
corn; [1]
  Corn plant response rating: 0
corn; Preemergence, Rate 125 g/ha
  Corn plant response rating (0 to 10 scale): 0
corn; [2]
  Corn plant response rating: 0
corn; [3]
  Corn plant response rating: 0
corn; [4]
  Corn plant response rating: 0
corn; [5]
  Corn plant response rating: 0
corn; [6]
  Plant response rating, Corn: 0
corn; [7]
  Corn plant response rating: 0
crabgrass; [1]
  Crabgrass plant response rating: 0
crabgrass; Preemergence, Rate 125 g/ha
  Crabgrass plant response rating (0 to 10 scale): 2
crabgrass; [2]
  Crabgrass plant response rating: 4
crabgrass; [3]
  Crabgrass plant response rating: 7
crabgrass; [4]
  Crabgrass plant response rating: 0
crabgrass; [5]
  Crabgrass plant response rating: 0
crabgrass; [6]
  Plant response rating, Crabgrass: 0
Giant foxtail; [1]
  Giant foxtail plant response rating: 0
Giant foxtail; Preemergence, Rate 125 g/ha
  Giant foxtail plant response rating (0 to 10 scale): 5
Giant foxtail; [2]
  Giant foxtail plant response rating: 9
Giant foxtail; [3]
  Giant foxtail plant response rating: 10
Giant foxtail; [4]
  Giant foxtail plant response rating: 0
Giant foxtail; [5]
  Giant foxtail plant response rating: 0
Giant foxtail; [6]
  Plant response rating, Giant foxtail: 0
morningglory; [1]
  Morningglory plant response rating: 0
morningglory; Preemergence, Rate 125 g/ha
  Morningglory plant response rating (0 to 10 scale): 0
morningglory; [2]
  Morningglory plant response rating: 0
morningglory; [3]
  Morningglory plant response rating: 0
morningglory; [4]
  Morningglory plant response rating: 0
morningglory; [5]
  Morningglory plant response rating: 0
morningglory; [6]
  Plant response rating, Morningglory: 0
pigweed; [1]
  Redroot pigweed plant response rating: 0
pigweed; Preemergence, Rate 125 g/ha
  Redroot pigweed plant response rating (0 to 10 scale): 0
pigweed; [2]
  Redroot pigweed plant response rating: 0
pigweed; [3]
  Redroot pigweed plant response rating: 0
pigweed; [4]
  Redroot pigweed plant response rating: 0
pigweed; [5]
  Redroot pigweed plant response rating: 0
pigweed; [6]
  Plant response rating, Redroot pigweed: 0
rape; [1]
  Rape plant response rating: 0
rape; Preemergence, Rate 125 g/ha
  Rape plant response rating (0 to 10 scale): 0
rape; [2]
  Rape plant response rating: 0
rape; [3]
  Rape plant response rating: 0
rape; [4]
  Rape plant response rating: 0
rape; [5]
  Rape plant response rating: 0
rape; [6]
  Plant response rating, Rape: 0
soybean; [1]
  Soybean plant response rating: 0
soybean; Preemergence, Rate 125 g/ha
  Soybean plant response rating (0 to 10 scale): 0
soybean; [2]
  Soybean plant response rating: 0
soybean; [3]
  Soybean plant response rating: 0
soybean; [4]
  Soybean plant response rating: 1
soybean; [5]
  Soybean plant response rating: 2
soybean; [6]
  Plant response rating, Soybean: 2
Sugar beet; [1]
  Sugarbeets plant response rating: 0
Sugar beet; Preemergence, Rate 125 g/ha
  Sugarbeets plant response rating (0 to 10 scale): 0
Sugar beet; [2]
  Sugarbeets plant response rating: 0
Sugar beet; [3]
  Sugarbeets plant response rating: 0
Sugar beet; [4]
  Sugarbeets plant response rating: 0
Sugar beet; [5]
  Sugarbeets plant response rating: 0
Sugar beet; [6]
  Plant response rating, Sugarbeets: 0
velvetleaf; [1]
  Velvetleaf plant response rating: 0
velvetleaf; Preemergence, Rate 125 g/ha
  Velvetleaf plant response rating (0 to 10 scale): 0
velvetleaf; [2]
  Velvetleaf plant response rating: 0
velvetleaf; [3]
  Velvetleaf plant response rating: 0
velvetleaf; [4]
  Velvetleaf plant response rating: 0
velvetleaf; [5]
  Velvetleaf plant response rating: 0
velvetleaf; [6]
  Plant response rating, Velvetleaf: 0
Wild oat; [1]
  Wild oats plant response rating: 0
Wild oat; Preemergence, Rate 125 g/ha
  Wild oats plant response rating (0 to 10 scale): 0
Wild oat; [2]
  Wild oats plant response rating: 0
Wild oat; [3]
  Wild oats plant response rating: 3
Wild oat; [4]
  Wild oats plant response rating: 0
Wild oat; [5]
  Wild oats plant response rating: 0
Wild oat; [6]
  Plant response rating, Wild oats: 0
Purple nutsedge; [1]
  Nutsedge plant response rating: 0
Purple nutsedge; Preemergence, Rate 125 g/ha
  Nutsedge plant response rating (0 to 10 scale): 0
Purple nutsedge; [2]
  Nutsedge plant response rating: 0
Purple nutsedge; [3]
  Nutsedge plant response rating: 0
Purple nutsedge; [4]
  Nutsedge plant response rating: 0
Purple nutsedge; [5]
  Nutsedge plant response rating: 0
Purple nutsedge; [6]
  Plant response rating, Nutsedge: 0
rice; [8]
  Rice plant response rating: 0
rice; [9]
  Rice plant response rating: 0
rice; [10]
  Rice plant response rating: 0
rice; [11]
  Rice plant response rating: 0
Duck salad; [8]
  Ducksalad plant response rating: 0
Duck salad; [9]
  Ducksalad plant response rating: 0
Duck salad; [10]
  Ducksalad plant response rating: 0
Duck salad; [11]
  Ducksalad plant response rating: 0
